This note sets out measurements from patent US6300353A, “Azoles for treatment of fungal infections” (Basilea Pharmaceutica AG, a Swiss Company, priority 1998, dated 2001).

For data set [1], the system named is Aspergillus fumigatus. Description: In vivo efficacy, pulmonary aspergillosis model. Conditions: in Rattus norvegicus, 336 h.
Data set [2] in a line: Conversion of compounds of formula (I') to compounds of formula (II) in human plasma. The class given is in vitro ADME. Particulars: 37° C.; for remaining at 5 min / metabolised at 5 min: incubation time 5 min; for remaining at 5 min: read-out: Observed (%) Comp. (I'); for metabolised at 5 min: read-out: Observed (%) Compound (II). How it is done: In addition, the azole of formula I' are chemically stable in aqueous solution at room temperature more than three days, but are efficiently converted into compounds of formula (II) in either mouse, rat, monkey or human plasma. The conversion of representatives of the new azole compounds of the general formula (I') to compounds of formula (II) in human plasma are shown in Table 4. The compounds of formula (I') were incubated with human plasma at a concentration of 10.quadrature.g/ml at 37° C. for up to 20 min.

Data set [3] deals with Aspergillus fumigatus. Description: In vivo efficacy, systemic aspergillosis model. Conditions: in Rattus norvegicus, 336 h.
The subject of the next data set is Candida albicans. Description: In vivo efficacy, systemic candidiasis model. Conditions: in Rattus norvegicus, 336 h.
A short description of a further data set: physchem. Particulars: water.
Another data set has as its target CYP2C9 (Homo sapiens, UniProt P11712). Description: In vitro P450 inhibitory activity (CYP2C9, tolbutamide 4-hydroxylation), human liver microsomes.
The next data set deals with CYP3A4 (Homo sapiens, UniProt P08684). Description: In vitro P450 inhibitory activity (CYP3A4, midazolam 1-hydroxylation), human liver microsomes. The class given is in vitro ADME. Conditions: midazolam 10 μM, 10 min, read-out: P450 inhibition IC50, CYP 3A4.
Sequence of CYP3A4 (P08684 whole entry): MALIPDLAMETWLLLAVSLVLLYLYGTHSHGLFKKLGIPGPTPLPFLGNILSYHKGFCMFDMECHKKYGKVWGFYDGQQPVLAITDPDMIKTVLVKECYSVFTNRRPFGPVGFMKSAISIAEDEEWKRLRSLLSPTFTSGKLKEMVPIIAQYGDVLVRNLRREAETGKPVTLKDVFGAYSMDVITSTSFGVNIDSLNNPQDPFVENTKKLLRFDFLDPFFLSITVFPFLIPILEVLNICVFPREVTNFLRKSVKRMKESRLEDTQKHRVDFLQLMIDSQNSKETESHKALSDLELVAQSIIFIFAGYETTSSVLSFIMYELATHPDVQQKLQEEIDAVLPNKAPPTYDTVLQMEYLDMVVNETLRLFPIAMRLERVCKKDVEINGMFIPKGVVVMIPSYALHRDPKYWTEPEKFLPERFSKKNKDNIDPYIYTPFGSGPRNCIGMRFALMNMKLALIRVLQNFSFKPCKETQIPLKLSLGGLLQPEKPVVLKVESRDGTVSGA
[4] abbreviates: iv, read-out: Effective dose 50% (ED50), pulmonary aspergillosis, i.v.
The mark [5] stands for this setting: iv, read-out: Effective dose 50% (ED50), systemic aspergillosis, i.v.
Setting [6] is: po, read-out: Effective dose 50% (ED50), systemic candidiasis, p.o.

Read-outs that look alike come from different tables or passages of the source.

Sequence of CYP2C9 (P11712 whole entry): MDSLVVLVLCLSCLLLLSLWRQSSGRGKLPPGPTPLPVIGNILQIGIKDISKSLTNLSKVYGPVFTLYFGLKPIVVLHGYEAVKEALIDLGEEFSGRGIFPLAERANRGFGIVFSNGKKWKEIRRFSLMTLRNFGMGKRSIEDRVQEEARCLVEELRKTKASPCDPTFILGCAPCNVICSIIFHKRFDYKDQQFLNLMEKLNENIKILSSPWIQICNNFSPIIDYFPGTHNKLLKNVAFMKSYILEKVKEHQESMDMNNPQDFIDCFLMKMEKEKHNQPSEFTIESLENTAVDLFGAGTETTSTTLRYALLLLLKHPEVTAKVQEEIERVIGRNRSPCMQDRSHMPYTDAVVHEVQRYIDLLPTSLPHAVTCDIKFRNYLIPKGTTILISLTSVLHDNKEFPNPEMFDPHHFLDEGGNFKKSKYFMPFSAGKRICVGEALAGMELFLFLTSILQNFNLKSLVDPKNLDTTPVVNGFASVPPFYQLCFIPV
Protocol for CYP2C9: Each azole compound at different concentrations was incubated with a specific substrate for each CYP, human liver microsomes and NADPH at 37° C. […] The substrate concentrations and incubation conditions were as follows:

With `CNCC(=O)Oc1c(C)cc(C[n+]2cnn(C[C@](O)(c3cc(F)ccc3F)[C@@H](C)c3nc(-c4ccc(C#N)cc4)cs3)c2)cc1C.[Br-]` [Example 1, 1-{(2R,3R)-3-[4-(4-cyano-phenyl)-thiazol-2-yl]-2-(2,5-difluoro-phenyl)-2-hydroxy-butyl}-4-(3,5-dimethyl-4-methylaminoacetoxy-benzyl)-1H-[1,2,4]triazol-4-ium bromide], the ED50 – broadly, the dose that gives a 50% effect, or the effect in half of the subjects – in the data set with Aspergillus fumigatus [1] (setting [4]) was found to be 8 ± 4.2 µmol/kg; in the data set with Aspergillus fumigatus [1] (po, read-out: Effective dose 50% (ED50), pulmonary aspergillosis, p.o.), 7.4 ± 3.8 µmol/kg; with Aspergillus fumigatus [3] (setting [5]), 3 µmol/kg; in the data set with Aspergillus fumigatus [3] (po, read-out: Effective dose 50% (ED50), systemic aspergillosis, p.o.), 5.8 µmol/kg; in the data set on Candida albicans (iv, read-out: Effective dose 50% (ED50), systemic candidiasis, iv.) it was 5.3 µmol/kg; with Candida albicans (setting [6]), 5.3 µmol/kg. Further, the half-life (in general, the time in which the quantity being followed falls by half) in data set [2] was less than 1 min. In data set [2], the remaining at 5 min was less than 5%. Moreover, the metabolised at 5 min in data set [2] turned out to be 96%. In addition, the solubility (as a rule, the concentration that dissolves in the medium under given conditions) in “physchem” worked out at 22 mg/mL.

With `CNCC(=O)Oc1c(C)cc(C[n+]2cnn(C[C@](O)(c3cc(F)c(F)cc3F)[C@@H](C)c3nc(-c4ccc(C#N)cc4)cs3)c2)cc1C.Cl.[Br-]` [Example 3, 1-[(2R,3R)-3-[4-(4-cyanophenyl)thiazol-2-yl]-2-hydroxy-2-(2,4,5-trifluorophenyl)butyl]-4-(3,5-dimethyl-4-methylaminoacetoxybenzyl)-1H-[1,2,4]triazol-4-ium bromide hydrochloride], in data set [2], the half-life is less than 1 min, the remaining at 5 min is less than 5% and the metabolised at 5 min worked out at 89%. The solubility in “physchem” is greater than 7 mg/mL.

As for `C[C@@H](c1nc(-c2ccc(C#N)cc2)cs1)[C@](O)(Cn1cncn1)c1cc(F)ccc1F` [Example 4], the IC50 (in general, the midpoint of a concentration-inhibition curve) at CYP2C9 was 35.1 µM.

On to `C[C@@H](c1nc(-c2ccc(C#N)cc2)cs1)[C@](O)(Cn1cncn1)c1cc(F)c(F)cc1F` [Example 5], for which the figures for the IC50 at CYP2C9 and at CYP3A4 were 18.4 µM and 23 µM, respectively.

Consider `OC(Cn1cncn1)(Cn1cncn1)c1ccc(F)cc1F` [Fluconazole, reference compound], for which the ED50 in the data set on Candida albicans (setting [6]) was determined as 1.4 µmol/kg.

As to `CCC(C)n1ncn(-c2ccc(N3CCN(c4ccc(OCC5COC(Cn6cncn6)(c6ccc(Cl)cc6Cl)O5)cc4)CC3)cc2)c1=O` (stereo not shown) [Itraconazole, reference compound], the values for the ED50 with Aspergillus fumigatus [1] (setting [4]), with Aspergillus fumigatus [3] (setting [5]) and in the data set on Candida albicans (setting [6]) were 2 ± 1.1 µmol/kg, 4 µmol/kg and 3.9 ± 2.2 µmol/kg, respectively. The IC50 at CYP2C9 was 25.7 µM.
